Source: US11767316B2, “Non-fused thiophene derivatives and their uses” (ENYO PHARMA, priority 2018, dated 2023)
Where two headings read alike, the source gives them in different places.

System: H1N1 (influenza A/New Caledonia/20/99)
Assay: Antiviral effect on A549 cells infected with H1N1 (MUNANA neuraminidase readout)
Format: cell-based
Conditions: H1N1 A/New Caledonia/20/99 at MOI 0.1, 48 h post-infection, MUNANA fluorescence
Method: The antiviral effect of the compounds of the invention have been tested on A549 cell lines infected with H1N1 (influenza A/New Caledonia/20/99).
Human A549 cells (80,000 cells/well in a 96 well plate) were treated with a range of concentration of test compounds and immediately infected by H1N1 A/New Caledonia/20/99 virus (clinical isolate) at MOI of 0.1 in DMEM/1% Penicillin/streptomycin supplemented with 0.25 μg/ml TPCK trypsin (Sigma) and incubated at 37° C. in 5% CO2. 48 h post-infection, supernatants (25 μl) were collected and transferred into a 96-well black flat-bottom plate, mixed with 25 μl PBS with Ca++/Mg++(Thermo Fisher) and 50 μl of 2′-(4-Methylumbelliferyl)-α-D-N-acetylneuraminic acid sodium salt hydrate stock-solution (20 μM, MUNANA, Sigma). Plates were incubated 1 h at 37° C. and reaction is stopped by adding 100 μl of Stop Solution (glycine 0.1 M pH10.7/25% ethanol). The amount of fluorescent product released by MUNANA hydrolysis (4-MU) was measured in a Tecan spectrophotometer with excitation and emission wavelengths of 365 and 450 nm respectively.

[1] = Influenza A virus, H1N1, A549, 48 h, read-out: IC50
[2] = Influenza A virus, H1N1, A549, 48 h

Row | SMILES | IC50 [1] | further results
1 | O=C(Nc1scc(C2CCc3ccccc3C2)c1C(=O)O)c1ccc(N2C3CCC2COC3)cc1 (stereo not drawn) [#144] | 4 nM | –
2 | C[C@@H]1CN(c2ccc(C(=O)Nc3scc(C4CCc5ccccc5C4)c3C(=O)O)cc2)C[C@H](C)O1 (stereo partly drawn) [#148] | 24 nM | –
3 | O=C(Nc1scc(C2CCc3ccccc3C2)c1C(=O)O)c1ccc(OC(F)F)cc1 (stereo not drawn) [#175] | – | IC50 (read-out: IC50): 14 nM
4 | O=C(Nc1scc(C2CCc3ccccc3C2)c1C(=O)O)c1ccccc1O (stereo not drawn) [#160] | 147 nM | –
5 | O=C(Nc1scc(C2CCc3ccccc3C2)c1C(=O)O)c1ccc(F)cc1 (stereo not drawn) [#171] | – | IC50 (read-out: IC50): 6 nM
6 | COCCCNc1ccc(C(=O)Nc2scc(C3CCc4ccccc4C3)c2C(=O)O)cc1 (stereo not drawn) [#64] | 3.3 nM | –
7 | O=C(Nc1scc(C2CCc3cc(F)ccc3C2)c1C(=O)O)c1ccccc1 (stereo not drawn) [#191] | 46 nM | –
8 | O=C(Nc1scc(C2Cc3ccccc3C2)c1C(=O)O)c1ccccc1 [#7] | 144 nM | –
9 | O=C(Nc1scc(C2CCc3ccccc3C2)c1C(=O)O)c1cnc(N2CCOCC2)nc1 (stereo not drawn) [#89] | 240 nM | –
10 | O=C(Nc1scc(C2CCc3ccccc3CC2)c1C(=O)O)c1ccccc1 [#122] | 744 nM | –
11 | O=C(Nc1sc(C2CC2)c(C2Cc3ccccc3C2)c1C(=O)O)c1ccccc1 [#51] | 52 nM | –
12 | COc1ccccc1C(=O)Nc1scc(C2CCc3ccccc3C2)c1C(=O)O (stereo not drawn) [#159] | 100 nM | –
13 | O=C(Nc1scc(C2CCc3ccccc3C2)c1C(=O)O)c1cccc(F)c1 (stereo not drawn) [#169] | 162 nM | –
14 | O=C(Nc1sc(Cl)c(C2CCc3ccccc32)c1C(=O)O)c1ccccc1 (stereo not drawn) [#49] | 130 nM | –
15 | CC(C)(C)Oc1ccc(C(=O)Nc2scc(C3CCc4ccccc4C3)c2C(=O)O)cc1 (stereo not drawn) [#188] | 15 nM | –
16 | COc1ccc(C(=O)Nc2scc(C3CCc4ccccc4C3)c2C(=O)O)cc1OC (stereo not drawn) [#155] | 3 nM | –
17 | O=C(Nc1scc(C2CCc3ccccc3C2)c1C(=O)O)c1ccc(OC(F)F)cc1 (stereo not drawn) [#174] | – | IC50 (read-out: IC50): 0.3 nM
18 | CC1(C)Cc2cc(C(=O)Nc3scc(C4CCc5ccccc5C4)c3C(=O)O)ccc2O1 (stereo not drawn) [#179] | 29 nM | –
19 | O=C(Nc1scc(C2CCc3ccccc3C2)c1C(=O)O)c1ccc(NC(CO)C2CCOCC2)cc1 (stereo not drawn) [#131] | 110 nM | –
20 | COc1cc(C(=O)Nc2scc(C3CCc4ccccc4C3)c2C(=O)O)ccc1F (stereo not drawn) [#164] | 8 nM | –
21 | O=C(Nc1scc(-c2ccc3c(c2)CCCC3)c1C(=O)O)c1ccc(F)cc1 [#125] | 237 nM | –
22 | O=C(Nc1scc(C2CCc3ccccc3C2)c1C(=O)O)c1ccccc1 (stereo not drawn) [#156] | – | IC50 (read-out: IC50): 185 nM
23 | COCCOc1ccc(C(=O)Nc2scc(C3CCc4ccccc4C3)c2C(=O)O)cc1 (stereo not drawn) [#101] | 44.6 nM | –
24 | O=C(Nc1scc(C2CCCc3ccccc32)c1C(=O)O)c1ccc(F)cc1 (stereo not drawn) [#126] | 237 nM | –

Row | SMILES | IC50 [1] | further results
25 | O=C(Nc1scc(C2=Cc3ccccc3CC2)c1C(=O)O)c1ccccc1 [#185] | 260 nM | –
26 | O=C(Nc1scc(C2CCc3ccccc3C2)c1C(=O)O)c1cccc(OC(F)F)c1 (stereo not drawn) [#170] | 18 nM | –
27 | COC1CN(c2ccc(C(=O)Nc3scc(C4CCc5ccccc54)c3C(=O)O)cc2)C1 (stereo not drawn) [#58] | 100 nM | –
28 | O=C(Nc1scc(C2CCc3ccccc3C2)c1C(=O)O)c1ccccc1CN1CCOCC1 (stereo not drawn) [#130] | 560 nM | –
29 | O=C(Nc1scc(C2CCc3ccccc3C2)c1C(=O)O)c1cccc(N2CCOCC2)c1 (stereo not drawn) [#70] | 7.5 nM | –
30 | O=C(Nc1scc(C2CCc3ccccc3C2)c1C(=O)O)c1ccccn1 (stereo not drawn) [#186] | 134 nM | –
31 | O=C(Nc1scc(C2CCc3ccccc3C2)c1C(=O)O)c1ccc(N2CC3CCC(C2)O3)cc1 (stereo not drawn) [#142] | 0.3 nM | –
32 | O=C(Nc1scc(C2CCc3ccccc3C2)c1C(=O)O)c1ccccc1 (stereo not drawn) [#157] | – | IC50 (read-out: IC50): 7 nM
33 | O=C(Nc1scc(C2CCc3ccccc3C2)c1C(=O)O)c1ccc(N2CCOCC2)cc1 (stereo not drawn) [#68] | 52 nM | –
34 | COC1CN(c2ccc(C(=O)Nc3scc(C4CCc5ccccc5C4)c3C(=O)O)cc2)C1 (stereo not drawn) [#53] | 4 nM | –
35 | O=C(Nc1scc(C2CCc3ccccc3C2)c1C(=O)O)c1ccccc1N1CCOCC1 (stereo not drawn) [#129] | 460 nM | –
36 | O=C(Nc1scc(C2CCc3ccccc3C2)c1C(=O)O)c1ccc(C(F)(F)F)cc1 (stereo not drawn) [#158] | 7 nM | –
37 | O=C(O)c1c(C2CCc3ccccc3C2)csc1NC(=O)C12CC(C1)C2 (stereo not drawn) [#192] | 347 nM | –
38 | O=C(Nc1scc(C2CCc3ccccc3C2)c1C(=O)O)c1ccc2c(c1)CCO2 (stereo not drawn) [#177] | 35 nM | –
39 | O=C(Nc1scc(C2CCc3c(F)cccc3C2)c1C(=O)O)c1ccccc1 (stereo not drawn) [#190] | 8 nM | –
40 | COCCNc1ccc(C(=O)Nc2scc(C3CCc4ccccc4C3)c2C(=O)O)cc1 (stereo not drawn) [#65] | 4 nM | –
41 | O=C(Nc1scc(C2CCc3ccccc3C2)c1C(=O)O)c1ccc(NC2CCCOC2)cc1 (stereo not drawn) [#67] | 2 nM | –
42 | O=C(Nc1scc(C2CCc3ccccc3C2)c1C(=O)O)c1ccc2c(c1)CCCO2 (stereo not drawn) [#181] | 2 nM | –
43 | C[C@H]1COCCN1c1ccc(C(=O)Nc2scc(C3CCc4ccccc4C3)c2C(=O)O)cc1 (stereo partly drawn) [#146] | 0.5 nM | –
44 | COc1cc(C(=O)Nc2scc(C3CCc4ccccc4C3)c2C(=O)O)ccc1NCC1CCOCC1 (stereo not drawn) [#127] | 1.8 nM | –
45 | O=C(Nc1scc(C2CCc3ccccc3C2)c1C(=O)O)c1ccc(Cl)cc1 (stereo not drawn) [#161] | 16 nM | –
46 | O=C(Nc1scc(-c2ccc3c(c2)CCCC3)c1C(=O)O)c1ccccc1 [#123] | 133 nM | –
47 | O=C(Nc1scc(C2CCc3ccccc3C2)c1C(=O)O)c1ccc(N2C3COCC2C3)cc1 (stereo not drawn) [#150] | 1 nM | –
48 | O=C(Nc1scc(C2CCc3ccccc3C2)c1C(=O)O)c1ccc(F)cc1 (stereo not drawn) [#172] | – | IC50 (read-out: IC50): 617 nM

Row | SMILES | IC50 [1] | further results
49 | O=C(Nc1scc(C2CCc3ccccc3C2)c1C(=O)O)c1ccc(NCC2CCOCC2)cc1 (stereo not drawn) [#69] | 3 nM | –
50 | C[C@@H]1COC[C@H](C)N1c1ccc(C(=O)Nc2scc(C3CCc4ccccc4C3)c2C(=O)O)cc1 (stereo partly drawn) [#149] | 29 nM | –
51 | O=C(Nc1scc(C2CCc3ccccc3C2)c1C(=O)O)c1cccc(Cl)c1 (stereo not drawn) [#167] | 75 nM | –
52 | N#Cc1ccc(C(=O)Nc2scc(C3CCc4ccccc4C3)c2C(=O)O)cc1 (stereo not drawn) [Compound #183, 2-[(4-Cyanobenzoyl)amino]-4-tetralin-2-yl-thiophene-3-carboxylic acid] | – | IC50 [2]: 462 nM
53 | C[C@@H]1CN(c2ccc(C(=O)Nc3scc(C4CCc5ccccc5C4)c3C(=O)O)cc2)CCO1 (stereo partly drawn) [#147] | 8 nM | –
54 | O=C(Nc1scc(C2CCc3ccccc3C2)c1C(=O)O)c1ccc(OC2CCOCC2)cc1 (stereo not drawn) [#182] | – | IC50 [2]: 3 nM
55 | Cc1ccc(C(=O)Nc2scc(C3CCc4ccccc4C3)c2C(=O)O)cc1 (stereo not drawn) [#166] | 39 nM | –
56 | O=C(Nc1scc(C2CCc3ccccc32)c1C(=O)O)c1ccc(NC2CCOCC2)cc1 (stereo not drawn) [#55] | 33.8 nM | –
57 | O=C(Nc1scc(C2CCc3ccccc3C2)c1C(=O)O)c1ccc2c(c1)OCCO2 (stereo not drawn) [#176] | 76 nM | –
58 | CS(=O)(=O)c1ccc(C(=O)Nc2scc(C3CCc4ccccc4C3)c2C(=O)O)cc1 (stereo not drawn) [#165] | 900 nM | –
59 | O=C(Nc1scc(C2CCc3ccccc3C2)c1C(=O)O)c1ccc(NCC2CCS(=O)(=O)CC2)cc1 (stereo not drawn) [#138] | 22 nM | –
60 | O=C(Nc1scc(C2CCc3ccccc3C2)c1C(=O)O)c1ccc(N2CCCC2=O)cc1 (stereo not drawn) [#168] | 11 nM | –
61 | O=C(O)c1c(C2CCc3ccccc3C2)csc1NC(=O)C12CC(F)(C1)C2 (stereo not drawn) [#193] | 315 nM | –
62 | O=C(Nc1scc(C2CCc3ccccc3C2)c1C(=O)O)c1ccc(NCC2CCCCC2)cc1 (stereo not drawn) [#128] | 0.8 nM | –
63 | O=C(Nc1scc(C2CCc3ccccc3C2)c1C(=O)O)c1ccc(OC(F)(F)F)cc1 (stereo not drawn) [#153] | 0.4 nM | –
64 | C[C@H]1CN(c2ccc(C(=O)Nc3scc(C4CCc5ccccc5C4)c3C(=O)O)cc2)CCO1 (stereo partly drawn) [#143] | 4 nM | –
65 | O=C(Nc1scc(C2CCc3ccccc3C2)c1C(=O)O)c1ccc(N2C[C@H]3C[C@@H]2CO3)cc1 (stereo partly drawn) [#141] | 2.7 nM | –
66 | CN(CC1CCOCC1)c1ccc(C(=O)Nc2scc(C3CCc4ccccc4C3)c2C(=O)O)cc1 (stereo not drawn) [#132] | 2 nM | –
67 | O=C(Nc1sc(Cl)c(C2Cc3ccccc3C2)c1C(=O)O)c1ccccc1 [#8] | 187 nM | –
68 | O=C(Nc1scc(C2CCc3ccccc3C2)c1C(=O)O)c1ccc(NC2CCOCC2)cc1 (stereo not drawn) [#52] | 0.4 nM | –
69 | O=C(Nc1scc(C2CCc3ccc(F)cc3C2)c1C(=O)O)c1ccccc1 (stereo not drawn) [#189] | 178 nM | –
70 | O=C(Nc1scc(C2CCc3ccccc3C2)c1C(=O)O)c1ccc(NCCCCO)cc1 (stereo not drawn) [#133] | 50 nM | –
71 | COc1cc(C(=O)Nc2scc(C3CCc4ccccc4C3)c2C(=O)O)cc(OC)c1NCC1CCOCC1 (stereo not drawn) [#137] | 4.2 nM | –
72 | O=C(Nc1scc(C2CCc3ccccc3C2)c1C(=O)O)c1ccccc1F (stereo not drawn) [#163] | 43 nM | –
